Results from patent US7470669B2, “Isolated polypeptide comprising a leptin fragment” (Serono Genetics Institute, S.A., priority 1999, dated 2008).
Marks after values point to notes of the source that are not given here.

Tests used:
[1] = test system: LSR; test: LSR activity (oleate-induced 125I-LDL binding, uptake, degradation) in primary cultures of rat hepatocytes; type: cell-based; conditions: for oleate-induced LDL degradation / oleate-induced LDL binding: primary rat hepatocytes; for oleate-induced LDL degradation: 22-mer peptides; for oleate-induced LDL binding: peptide concentrations <50 μg/mL
Procedure: FIGS. 6A, 6B, and 6C show the effect of leptin on ^125I-LDL and ^125I-chylomicron binding to LSR in primary cultures of rat hepatocytes. For FIG. 6A, primary cultures of rat hepatocytes (48 hours after plating) were incubated at 37° C. for 30 min in the absence (□) or presence (▪) of 50 ng/mL leptin in Buffer A, followed by a 20 min incubation at 37° C. with 0.5 mM oleate. The cells were then washed with ice-cold PBS, precooled for 10 min, and then incubated for 1 h at 4° C. with increasing concentrations of ^125I-LDL in Buffer A. Cells were washed, were lysed in 0.1 N NaOH and were counted for radioactivity. Results are shown as the mean of duplicate determinations. For FIG. 6B, primary cultures of rat hepatocytes were incubated at 37° C. for 30 min with or without 20 ng/mL leptin followed by incubation at 37° C. for 4 h with 6 μg protein/mL ^125I-chylomicrons in the absence or presence of 0.5 mM oleate in Buffer A. The cells were then washed and the ^125I-chylomicrons bound to the cell surface were released into the media by incubation with 10 mM suramin. The media was recovered and the radioactivity was measured. Results are shown as the mean±SD of six determinations. Fir FIG. 6C, after incubation at 37° C. for 30 min with 50 ng/mL leptin, the cells were incubated at room temperature for 30 min with 200 μg IgG/mL antibodies directed against rat LSR protein or irrelevant IgG. The amount of ^125I-chylomicrons bound was determined, and results are shown as means±SD of triplicate (irrelevant) or quadruplicate (anti-LSR) determinations.
FIGS. 7A and 7B show a comparison of the effect of human and mouse leptin on LSR activity in rat hepatocytes and on postprandial increase in plasma TG in db^Pas/db^Pas mice. For FIG. 7A, primary cultures of rat hepatocytes were incubated 30 min at 37° C. without (open bar) or with 10 ng/mL recombinant human (solid bar) or mouse (hatched bar) leptin in Buffer A. Oleate (0.5 mM) and ^125I-LDL (20 μg/mL) were added and the cells were incubated 2 h at 37° C. The media were removed and were analyzed for TCA-soluble degradation products. The mean of duplicate determinations is shown. For FIG. 7B, db^Pas/db^Pas mice were given a test meal as previously described, followed immediately by injection i.p. of saline (open bar, n=4), human leptin (1 μg/animal; solid bar, n=3) or mouse leptin (0.25 μg/animal; hatched bar; n=3). The data represent the difference in TG concentrations measured at t=0 and the average of the concentrations at 3 and 4 hours. Results are shown as mean±SEM.
Cells were incubated 30 min at 37° C. with increasing concentrations of mouse (▪) or human (●) leptin peptide. Following this, 0.5 mM oleate and 20 μg/mL ^125I-LDL were added and the cells were further incubated for 2 h at 37° C. The cells were washed, and the amount of oleate-induced ^125I-LDL bound and degraded was measured as described previously (Bihain, B. E., and Yen, F. T. (1992). Free fatty acids activate a high-affinity saturable pathway for degradation of low-density lipoproteins in fibroblasts from a subject homozygous for familial hypercholesterolemia. Biochemistry 31, 4628-4636).
FIGS. 11A and 11B show the effect of mouse leptin (FIG. 11A) or leptin peptide (FIG. 11B) on postprandial plasma TG response in ob/ob mice. […] Postprandial triglyceridemia was measured as described previously. Each point represents the mean±SEM (A: saline, n=8, leptin, n=7; leptin peptide: saline, n=8, leptin, n=8). […] Primary cultures of rat hepatocytes were incubated 30 min at 37° C. with increasing concentrations of mouse leptin peptide. Oleate (0.5 mM) and ^125I-LDL (20 μg/mL) were added and the cells were incubated 2 h at 37° C. After washing, the amount of 125I-LDL bound to the cell surface was measured as described in the Examples section herein. […]

[2] = test system: ob/ob mice; test: Postprandial plasma TG response after high-fat test meal in ob/ob mice; type: in vivo, mouse; conditions: for postprandial lipemic response: single subcutaneous injection of 50 ng
Procedure: FIGS. 11A and 11B show the effect of mouse leptin (FIG. 11A) or leptin peptide (FIG. 11B) on postprandial plasma TG response in ob/ob mice. […] Postprandial triglyceridemia was measured as described previously. Each point represents the mean±SEM (A: saline, n=8, leptin, n=7; leptin peptide: saline, n=8, leptin, n=8). […] Primary cultures of rat hepatocytes were incubated 30 min at 37° C. with increasing concentrations of mouse leptin peptide. Oleate (0.5 mM) and ^125I-LDL (20 μg/mL) were added and the cells were incubated 2 h at 37° C. After washing, the amount of 125I-LDL bound to the cell surface was measured as described in the Examples section herein.
Mice that were fasted for 2-3 hours were gavage-fed 300 μL of a test meal consisting of 60% fat (37% saturated, 27% mono-, and 36% polyunsaturated fatty acids), 20% protein and 20% carbohydrate, and providing 56 kcal of energy/kg (1.5 g butter, 1.5 g sunflower oil, 2.5 g nonfat dry milk, 2.5 g sucrose and 3 ml water). Immediately after the meal, the animals were injected intravenously (db/db) or intraperitoneally (db^Pas/db^Pas) with either 200 μL physiological saline or 200 μL of the same solution containing recombinant mouse leptin. At selected time intervals, 20 μL of blood were collected from the orbital (db^Pas/db^Pas) or tail (db/db) vein into ice-cold microfuge tubes containing 4 mmol/L EDTA. Plasma was obtained by centrifugation at 2500 rpm for 20 min at 4° C., and was frozen as aliquots at −80° C. before analysis. TG concentrations were determined using a commercially available enzymatic kit with controls included in each assay (Precinorm L, Roche-Boehringer Mannheim; Lyotrol N, BioMérieux).
The inhibition of the intestinal absorption of dietary lipids by leptin was also investigated. Overnight-fasted ob/ob mice were gavage-fed a high fat test meal. […] Blood samples were taken at 2 and 3 h after the test meal, and plasma TG concentrations were measured (see Table, below). […]

Substance | oleate-induced LDL degradation [1] | oleate-induced LDL binding [1] | postprandial lipemic response [2] | oleate-induced binding of 125I-LDL ([1]; primary cultures of rat hepatocytes (FIG. 11B insert)) | Plasma TG 2-3 hours after test meal ([2]; i.v. 0.5 μg recombinant mouse leptin and/or 2.5 mg lactoferrin, mean ± SD)
CHLPWASGLETLDSLGGVLEAS (listed as Homo sapiens) [human peptide, human leptin fragment residues 117-138, 22-mer] | inhibitory effect | increased |  |  | 
CSLPQTSGLQKPESLDGVLEAS (listed as Mus musculus) [mouse peptide, mouse leptin fragment residues 117-138, 22-mer] | inhibitory effect | increased | reduced the postprandial lipemic response | stimulate | 
leptin: plasma protein of 16 kDa produced by adipocytes; recombinant human or mouse leptin, species depends on the experiment |  |  | decreases the postprandial lipemic response |  | 0.79 ± 0.1* mg/mL
